The target in one experiment is BRM (Homo sapiens, UniProt P51531). The experiment in a line: ATPase catalytic activity assay of BRM (ADP-Glo). In kind it is biochemical. To be noted: for IC50: read-out: BRM IC50 (μM)*. The method, boiled down: (§1)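 Once the enzyme reaction finished, residual ATP is removed with ADP-Glo Reagent over 40 minutes at room temperature. Kinase Detection Reagent then converts product ADP into ATP during a 60-minute room-temperature incubation, and the luciferase signal is read.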
BRM, sequence (P51531 whole entry): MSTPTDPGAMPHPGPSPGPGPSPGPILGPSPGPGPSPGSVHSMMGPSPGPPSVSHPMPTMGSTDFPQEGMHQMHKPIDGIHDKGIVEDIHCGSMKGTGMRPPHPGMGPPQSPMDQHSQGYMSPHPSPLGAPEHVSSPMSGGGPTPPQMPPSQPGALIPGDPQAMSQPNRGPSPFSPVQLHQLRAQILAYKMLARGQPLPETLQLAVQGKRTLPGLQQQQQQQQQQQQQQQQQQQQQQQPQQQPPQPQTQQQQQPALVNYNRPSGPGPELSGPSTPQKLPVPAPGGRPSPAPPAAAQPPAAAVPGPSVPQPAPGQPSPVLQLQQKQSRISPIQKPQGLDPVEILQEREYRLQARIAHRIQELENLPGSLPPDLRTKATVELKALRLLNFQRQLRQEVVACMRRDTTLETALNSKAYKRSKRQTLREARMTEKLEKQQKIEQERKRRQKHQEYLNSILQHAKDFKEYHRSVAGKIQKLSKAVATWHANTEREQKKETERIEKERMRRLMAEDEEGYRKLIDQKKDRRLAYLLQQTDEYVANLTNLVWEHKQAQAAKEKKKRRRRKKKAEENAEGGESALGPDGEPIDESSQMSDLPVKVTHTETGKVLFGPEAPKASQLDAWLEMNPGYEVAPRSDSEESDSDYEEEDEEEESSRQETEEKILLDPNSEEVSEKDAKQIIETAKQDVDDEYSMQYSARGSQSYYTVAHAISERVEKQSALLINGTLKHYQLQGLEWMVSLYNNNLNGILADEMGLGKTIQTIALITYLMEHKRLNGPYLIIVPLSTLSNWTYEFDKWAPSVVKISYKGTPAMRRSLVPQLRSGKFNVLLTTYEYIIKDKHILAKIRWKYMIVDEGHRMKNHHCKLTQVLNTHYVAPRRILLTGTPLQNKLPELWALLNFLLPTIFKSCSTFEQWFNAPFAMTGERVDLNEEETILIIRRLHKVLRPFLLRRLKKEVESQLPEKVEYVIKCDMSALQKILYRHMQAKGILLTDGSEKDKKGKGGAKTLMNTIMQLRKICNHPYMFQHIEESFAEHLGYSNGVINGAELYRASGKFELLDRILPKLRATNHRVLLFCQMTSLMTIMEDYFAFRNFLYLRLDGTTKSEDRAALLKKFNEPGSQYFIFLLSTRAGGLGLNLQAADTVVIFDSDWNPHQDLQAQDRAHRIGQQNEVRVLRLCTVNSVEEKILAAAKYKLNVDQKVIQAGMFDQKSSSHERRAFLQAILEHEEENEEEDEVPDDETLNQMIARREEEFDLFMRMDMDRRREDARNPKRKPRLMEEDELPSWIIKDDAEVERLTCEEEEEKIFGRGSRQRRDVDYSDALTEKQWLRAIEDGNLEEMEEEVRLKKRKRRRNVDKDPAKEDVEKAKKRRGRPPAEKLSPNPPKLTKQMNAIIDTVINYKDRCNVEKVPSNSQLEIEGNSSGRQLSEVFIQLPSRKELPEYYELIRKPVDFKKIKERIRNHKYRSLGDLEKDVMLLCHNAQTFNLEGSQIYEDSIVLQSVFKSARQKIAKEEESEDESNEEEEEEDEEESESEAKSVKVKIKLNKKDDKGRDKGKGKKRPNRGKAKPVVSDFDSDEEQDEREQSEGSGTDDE
Background: In ADP-Glo the light output rises with the ADP produced.

Another experiment has as its target BRG-1 (Homo sapiens, UniProt P51532). The experiment in a line: ATPase catalytic activity assay of BRG-1 (ADP-Glo). It counts as biochemical. To be noted: ATPase catalytic activity, ADP-Glo; for IC50: read-out: BRG1 IC50 (μM)*; for Emax: read-out: BRG1 Max % Inhibition. The method, boiled down: as §1

Each structure is given as a SMILES string. A value given as a limit tells only on which side of the number the result lay.

BRG-1, sequence (P51532 whole entry): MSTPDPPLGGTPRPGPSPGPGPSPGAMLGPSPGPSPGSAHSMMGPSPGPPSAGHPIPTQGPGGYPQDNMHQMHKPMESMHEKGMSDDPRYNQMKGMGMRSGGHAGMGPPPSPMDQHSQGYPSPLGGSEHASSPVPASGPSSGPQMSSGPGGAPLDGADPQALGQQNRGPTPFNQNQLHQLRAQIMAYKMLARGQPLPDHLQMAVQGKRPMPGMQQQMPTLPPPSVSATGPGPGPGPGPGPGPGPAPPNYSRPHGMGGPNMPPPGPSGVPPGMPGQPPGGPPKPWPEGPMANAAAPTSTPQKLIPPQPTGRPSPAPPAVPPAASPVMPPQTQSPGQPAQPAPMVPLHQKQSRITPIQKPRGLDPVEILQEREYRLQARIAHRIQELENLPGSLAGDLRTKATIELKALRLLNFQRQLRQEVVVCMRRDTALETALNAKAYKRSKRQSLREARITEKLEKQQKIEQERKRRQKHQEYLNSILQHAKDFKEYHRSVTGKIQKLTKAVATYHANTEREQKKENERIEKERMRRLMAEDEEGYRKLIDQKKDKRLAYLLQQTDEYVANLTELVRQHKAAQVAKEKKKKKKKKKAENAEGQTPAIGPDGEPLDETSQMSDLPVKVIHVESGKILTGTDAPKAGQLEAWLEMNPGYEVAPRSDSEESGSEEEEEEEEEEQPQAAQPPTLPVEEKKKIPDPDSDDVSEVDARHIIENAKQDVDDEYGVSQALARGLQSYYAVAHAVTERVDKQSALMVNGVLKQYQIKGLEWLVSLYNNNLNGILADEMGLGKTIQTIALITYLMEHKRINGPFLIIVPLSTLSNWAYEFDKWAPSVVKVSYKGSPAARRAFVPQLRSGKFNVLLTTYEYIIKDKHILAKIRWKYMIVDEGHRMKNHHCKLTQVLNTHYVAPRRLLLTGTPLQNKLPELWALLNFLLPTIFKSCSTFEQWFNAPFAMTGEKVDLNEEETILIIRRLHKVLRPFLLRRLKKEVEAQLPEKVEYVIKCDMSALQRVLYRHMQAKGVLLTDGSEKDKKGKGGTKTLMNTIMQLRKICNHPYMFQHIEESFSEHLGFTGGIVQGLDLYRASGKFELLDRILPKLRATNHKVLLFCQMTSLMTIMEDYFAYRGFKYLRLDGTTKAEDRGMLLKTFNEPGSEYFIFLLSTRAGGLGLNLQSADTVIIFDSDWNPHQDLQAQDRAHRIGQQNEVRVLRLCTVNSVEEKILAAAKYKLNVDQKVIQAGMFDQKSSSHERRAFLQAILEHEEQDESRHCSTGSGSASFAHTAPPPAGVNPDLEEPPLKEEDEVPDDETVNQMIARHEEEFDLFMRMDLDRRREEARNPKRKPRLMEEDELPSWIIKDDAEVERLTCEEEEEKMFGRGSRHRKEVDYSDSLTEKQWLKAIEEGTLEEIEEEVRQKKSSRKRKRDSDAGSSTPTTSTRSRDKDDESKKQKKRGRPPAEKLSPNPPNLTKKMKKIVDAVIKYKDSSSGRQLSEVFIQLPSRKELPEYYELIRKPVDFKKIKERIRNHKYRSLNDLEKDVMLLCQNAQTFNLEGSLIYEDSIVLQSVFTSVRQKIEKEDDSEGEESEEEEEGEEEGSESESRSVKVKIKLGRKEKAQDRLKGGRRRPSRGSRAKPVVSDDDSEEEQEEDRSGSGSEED

The IC50 is the concentration that gives 50% inhibition. Take `CC(C)(CN)c1cccc(C(=O)NCC(=O)Nc2nc(-c3cccc(-c4cc(CO)cc(C(F)(F)F)c4)c3)cs2)c1` [Compound 53, 3-(1-amino-2-methylpropan-2-yl)-N-(2-((4-(3′-(hydroxymethyl)-5′-(trifluoromethyl)-[1,1′-biphenyl]-3-yl)thiazol-2-yl)amino)-2-oxoethyl)benzamide]: on BRM, the “BRM Max % Inhibition” value is over 90% and the IC50 is 0.1 to 1 µM. Besides, on BRG-1, the IC50 fell in the range of 1 to 5 µM and the Emax was over 70%.

Regarding `CC(C)(CN)c1cccc(C(=O)NCC(=O)Nc2nc(-c3cccc(-c4cccc(Cl)c4)c3)cs2)c1` [Compound 54, 3-(1-amino-2-methylpropan-2-yl)-N-(2-((4-(3′-chloro-[1,1′-biphenyl]-3-yl)thiazol-2-yl)amino)-2-oxoethyl)benzamide], on BRM, the “BRM Max % Inhibition” value is listed as over 80% and the concentration for half-maximal inhibition (IC50) is 1 to 5 µM. In addition, on BRG-1, the IC50 was 1 to 5 µM and the Emax is over 50%.

For the compound `CC(C)(CN)c1cccc(C(=O)NCC(=O)Nc2nc(-c3cccc(-c4cccc(C#N)c4)c3)cs2)c1` [Compound 55, 3-(1-amino-2-methylpropan-2-yl)-N-(2-((4-(3′-cyano-[1,1′-biphenyl]-3-yl)thiazol-2-yl)amino)-2-oxoethyl)benzamide], on BRM, the “BRM Max % Inhibition” value is over 90% and the IC50 lay within 0.1 to 1 µM. On BRG-1, the half-maximal inhibitory concentration (IC50) is over 5 µM and the Emax is over 60%.

On to `CC(=O)N(C)c1cc(-c2cccc(-c3csc(NC(=O)CNC(=O)c4cccc(C(C)(C)CN)c4)n3)c2)ccn1` [Compound 56, 3-(1-amino-2-methylpropan-2-yl)-N-(2-((4-(3-(2-(N-methylacetamido)pyridin-4-yl)phenyl)thiazol-2-yl)amino)-2-oxoethyl)benzamide], for which, at BRM, the “BRM Max % Inhibition” value was over 90% and the 50% inhibitory concentration (IC50) was 0.1 to 1 µM. In addition, on BRG-1, the 50% inhibitory concentration (IC50) lay in the range of 1 to 5 µM and the Emax is over 70%.

For the compound `CNc1cc(-c2cccc(-c3csc(NC(=O)CNC(=O)c4cccc(C(C)(C)CN)c4)n3)c2)ccn1` [Compound 57, 3-(1-amino-2-methylpropan-2-yl)-N-(2-((4-(3-(2-(methylamino)pyridin-4-yl)phenyl)thiazol-2-yl)amino)-2-oxoethyl)benzamide], at BRM, the “BRM Max % Inhibition” value is listed as over 95% and the IC50 is under 0.1 µM. For the same compound, at BRG-1, the IC50 lay within 0.1 to 1 µM and the Emax was over 80%.

`CC(C)(CN)c1cccc(C(=O)NCC(=O)Nc2nc(-c3cccc(-c4ccnc(C(F)(F)F)c4)c3)cs2)c1` [Compound 58, 3-(1-amino-2-methylpropan-2-yl)-N-(2-oxo-2-((4-(3-(2-(trifluoromethyl)pyridin-4-yl)phenyl)thiazol-2-yl)amino)ethyl)benzamide]: at BRM, the “BRM Max % Inhibition” value was over 80% and the IC50 lay in the range of 0.1 to 1 µM. Also, at BRG-1, the half-inhibitory concentration (IC50) fell in the range of 1 to 5 µM and the Emax was over 60%.

On to `CC(C)(CN)c1cccc(C(=O)NCC(=O)Nc2nc(-c3cccc(-c4ccnc(N)c4)c3)cs2)c1` [Compound 59, 3-(1-amino-2-methylpropan-2-yl)-N-(2-((4-(3-(2-aminopyridin-4-yl)phenyl)thiazol-2-yl)amino)-2-oxoethyl)benzamide], for which, on BRM, the “BRM Max % Inhibition” value was over 95% and the half-inhibitory concentration (IC50) is under 0.1 µM. Also, on BRG-1, the 50% inhibitory concentration (IC50) fell in the range of 0.1 to 1 µM and the Emax was over 80%.

As for `CC(C)(CN)c1cccc(C(=O)NCC(=O)Nc2nc(-c3cccc(-c4ccnc(CO)c4)c3)cs2)c1` [Compound 60, 3-(1-amino-2-methylpropan-2-yl)-N-(2-((4-(3-(2-(hydroxymethyl)pyridin-4-yl)phenyl)thiazol-2-yl)amino)-2-oxoethyl)benzamide], at BRM, the “BRM Max % Inhibition” value is given as over 95% and the 50% inhibitory concentration (IC50) was under 0.1 µM. In addition, at BRG-1, the IC50 lay within 0.1 to 1 µM and the Emax is over 80%.

In the case of `CN(C)Cc1cc(-c2cccc(-c3csc(NC(=O)CNC(=O)c4cccc(C(C)(C)CN)c4)n3)c2)ccn1` [Compound 61, 3-(1-amino-2-methylpropan-2-yl)-N-(2-((4-(3-(2-((dimethylamino)methyl)pyridin-4-yl)phenyl)thiazol-2-yl)amino)-2-oxoethyl)benzamide], at BRM, the “BRM Max % Inhibition” value was over 90% and the IC50 fell in the range of 0.1 to 1 µM. Also, at BRG-1, the IC50 was 1 to 5 µM and the Emax is over 60%.

In the case of `CC(C)(CN)c1cccc(C(=O)NCC(=O)Nc2nc(-c3cccc(CO[C@H]4CC[C@H](O)CC4)c3)cs2)c1` [Compound 62, 3-(1-amino-2-methylpropan-2-yl)-N-(2-((4-(3-((((1R,4R)-4-hydroxycyclohexyl)oxy)methyl)phenyl)thiazol-2-yl)amino)-2-oxoethyl)benzamide], on BRM, the “BRM Max % Inhibition” value is listed as over 80% and the IC50 lay in the range of 1 to 5 µM. Also, on BRG-1, the IC50 is over 5 µM and the Emax was over 40%.

Turning to `Cc1cc(C(=O)NCC(=O)Nc2nc(-c3cccc(-c4ccncc4)c3)cs2)cc(C(C)(C)CN)c1` [Compound 63, 3-(1-amino-2-methylpropan-2-yl)-5-methyl-N-(2-oxo-2-((4-(3-(pyridin-4-yl)phenyl)thiazol-2-yl)amino)ethyl)benzamide], on BRM, the “BRM Max % Inhibition” value is over 80% and the 50% inhibitory concentration (IC50) was in the range of 1 to 5 µM. Further, on BRG-1, the IC50 was over 5 µM and the Emax is over 60%.

In the case of `CC(C)(CN)c1cccc(C(=O)NCC(=O)Nc2nc(-c3cccc(-c4ccncc4)c3)cs2)c1` [Compound 64, 3-(1-amino-2-methylpropan-2-yl)-N-(2-oxo-2-((4-(3-(pyridin-4-yl)phenyl)thiazol-2-yl)amino)ethyl)benzamide], on BRM, the “BRM Max % Inhibition” value is over 95% and the half-inhibitory concentration (IC50) lay within 0.1 to 1 µM. Moreover, at BRG-1, the concentration for half-maximal inhibition (IC50) was 1 to 5 µM and the Emax was over 80%.

In the case of `C[C@H](NC(=O)c1cccc(C(C)(C)CN)c1)C(=O)Nc1nc(-c2cccc(-c3ccncc3)c2)cs1` [Compound 65, (S)-3-(1-amino-2-methylpropan-2-yl)-N-(1-oxo-1-((4-(3-(pyridin-4-yl)phenyl)thiazol-2-yl)amino)propan-2-yl)benzamide], on BRM, the “BRM Max % Inhibition” value is given as over 90% and the IC50 lay in the range of 0.1 to 1 µM. Moreover, at BRG-1, the IC50 was in the range of 0.1 to 1 µM and the Emax is over 95%.

Turning to `Cc1cc(-c2cccc(-c3csc(NC(=O)CNC(=O)c4cccc(C(C)(C)CN)c4)n3)c2)cc(C)n1` [Compound 66, 3-(1-amino-2-methylpropan-2-yl)-N-(2-((4-(3-(2,6-dimethylpyridin-4-yl)phenyl)thiazol-2-yl)amino)-2-oxoethyl)benzamide], on BRM, the “BRM Max % Inhibition” value was over 95% and the IC50 was under 0.1 µM. Further, on BRG-1, the IC50 was 0.1 to 1 µM and the Emax was over 90%.

As to `Cn1ccc2ccc(-c3csc(NC(=O)CNC(=O)c4cccc(C(C)(C)CN)c4)n3)cc2c1=O` [Compound 67, 3-(1-amino-2-methylpropan-2-yl)-N-(2-((4-(2-methyl-1-oxo-1,2-dihydroisoquinolin-7-yl)thiazol-2-yl)amino)-2-oxoethyl)benzamide], at BRM, the “BRM Max % Inhibition” value was over 70% and the concentration for half-maximal inhibition (IC50) fell in the range of 1 to 5 µM. For the same compound, on BRG-1, the 50% inhibitory concentration (IC50) fell in the range of 1 to 5 µM and the Emax was over 40%.

On to `COC[C@H](NC(=O)c1cccc(C(C)(C)CN)c1)C(=O)Nc1nc(-c2cccc(-c3ccnc(C)c3)c2)cs1` [Compound 68, (S)-3-(1-amino-2-methylpropan-2-yl)-N-(3-methoxy-1-((4-(3-(2-methylpyridin-4-yl)phenyl)thiazol-2-yl)amino)-1-oxopropan-2-yl)benzamide], for which, on BRM, the “BRM Max % Inhibition” value is on record as over 95% and the half-inhibitory concentration (IC50) was in the range of 0.1 to 1 µM. On BRG-1, the IC50 is 0.1 to 1 µM and the Emax was over 90%.

Consider `Cn1ccc(-c2cccc(-c3csc(NC(=O)CNC(=O)c4cccc(C(C)(C)CN)c4)n3)c2)n1` [Compound 69, 3-(1-amino-2-methylpropan-2-yl)-N-(2-((4-(3-(1-methyl-1H-pyrazol-3-yl)phenyl)thiazol-2-yl)amino)-2-oxoethyl)benzamide], for which, on BRM, the “BRM Max % Inhibition” value is reported as over 70% and the 50% inhibitory concentration (IC50) was 0.1 to 1 µM. At BRG-1, the IC50 was over 5 µM and the Emax was over 30%.

As for `Cc1ccc(C(=O)NCC(=O)Nc2nc(-c3cccc(-c4ccn(C)n4)c3)cs2)cc1C(C)(C)CN` [Compound 70, 3-(1-amino-2-methylpropan-2-yl)-4-methyl-N-(2-((4-(3-(1-methyl-1H-pyrazol-3-yl)phenyl)thiazol-2-yl)amino)-2-oxoethyl)benzamide], on BRM, the “BRM Max % Inhibition” value is over 95% and the 50% inhibitory concentration (IC50) was in the range of 0.1 to 1 µM. Further, at BRG-1, the IC50 is over 5 µM and the Emax was over 50%.

With `CCc1ccc(C(=O)NCC(=O)Nc2nc(-c3cccc(-c4ccn(C)n4)c3)cs2)cc1C(C)(C)CN` [Compound 71, 3-(1-amino-2-methylpropan-2-yl)-4-ethyl-N-(2-((4-(3-(1-methyl-1H-pyrazol-3-yl)phenyl)thiazol-2-yl)amino)-2-oxoethyl)benzamide], on BRM, the “BRM Max % Inhibition” value is over 70% and the IC50 lay in the range of 1 to 5 µM. Further, at BRG-1, the concentration for half-maximal inhibition (IC50) was over 5 µM and the Emax was over 30%.

Take `NCC1(c2cccc(C(=O)NCC(=O)Nc3nc(-c4cccc(-c5ccncc5)c4)cs3)c2)CC1` [Compound 72, 3-(1-(aminomethyl)cyclopropyl)-N-(2-oxo-2-((4-(3-(pyridin-4-yl)phenyl)thiazol-2-yl)amino)ethyl)benzamide]: at BRM, the “BRM Max % Inhibition” value was over 80% and the IC50 was in the range of 0.1 to 1 µM. In addition, at BRG-1, the half-inhibitory concentration (IC50) was over 5 µM and the Emax was over 50%.

Regarding `CC(C)(CO)c1cccc(C(=O)NCC(=O)Nc2nc(-c3cccc(-c4ccncc4)c3)cs2)c1` [Compound 73, 3-(1-hydroxy-2-methylpropan-2-yl)-N-(2-oxo-2-((4-(3-(pyridin-4-yl)phenyl)thiazol-2-yl)amino)ethyl)benzamide], on BRM, the “BRM Max % Inhibition” value is over 95% and the 50% inhibitory concentration (IC50) was under 0.1 µM. Moreover, on BRG-1, the half-inhibitory concentration (IC50) fell in the range of 0.1 to 1 µM and the Emax is over 80%.

The values are drawn from patent US12685735B2 (Foghorn Therapeutics Inc., priority 2020, dated 2026).
